Assay results reported in US11952349B2, “Anti-cancer nuclear hormone receptor-targeting compounds” (Nuvation Bio Inc., priority 2019, dated 2024).
Like-named read-outs stand apart in the source and are kept apart here.

Legend:
Human recombinant PARP1 = Human recombinant PARP1 (Homo sapiens, UniProt P09874); experiment: RBC HotSpot PARP1 assay (radioisotope-based filter binding); type: biochemical
Experimental: The following methods are for evaluating the in vitro biology properties of the test articles. • a. RBC HotSpot Poly(ADP-ribose) Polymerases 1 (PARP1) and Poly(ADP-ribose) Polymerases 2 (PARP2) Assays: The assay was conducted at Reaction Biology Corporation (RBC; Malvern, PA). The assay principle is radioisotope-based filter binding assay where incorporation of radioisotope-labeled NAD^+ into the substrate captured on filter is detected after washout free NAD^+. Data were analyzed using Excel and GraphPad Prism software for IC50 curve fits. Each assay was conducted with PJ34 as a positive control. PARP1 assay: Human recombinant PARP1 at a final concentration of 2.5 nM was combined with histone H4 (20 μM) and test articles at various concentrations in reaction buffer (50 mM Tris-HCL, pH 8.0, 50 mM NaCl, 10 mM MgCl2, 1 mM DTT, 1% DMSO, and 20 μg/mL activated DNA). The solution was inoculated for 20 min at room temperature and the reaction initiated by adding [adenylate-^32P]-Nicotinamide Adenine Dinucleotide, ^32P-NAD^+ at a final concentration of 10 μM. After incubation for 2 hrs at room temperature, the reaction mixture was filtered and washed with 0.75% phosphoric acid for radioactivity detection. • ii. PARP2 assay: Human recombinant PARP2 at a final concentration of 2.5 nM was combined with histone H3 (20 μM) and test articles at various concentrations in reaction buffer (50 mM Tris-HCL, pH 8.0, 50 mM NaCl, 10 mM MgCl2, 1 mM DTT, 1% DMSO, and 20 μg/mL activated DNA). The solution was inoculated for 20 min at room temperature and the reaction was initiated by adding [adenylate-^32P]-Nicotinamide Adenine Dinucleotide, ^32P-NAD^+ at a final concentration of 10 μM. After incubation for 2 hrs at room temperature, the reaction mixture was filtered and washed with 0.75% phosphoric acid for radioactivity detection. • b. AR binding assay: AR in LNCaP cytosol was used for determining the binding affinity of test articles and the reference compound—progesterone (Sigma, Cat: E2785, St. Louis, MO). IC50 s were determined using 8 concentrations/compound. Cytosol is plated at 200 μg/well (100 μL) into a 96-well conical polypropylene plate (Agilent, Cat: 5042-1385, Santa Clara, CA) and mixed with 3 μL of test compound. After adding 100 μL of ^3H-methyltrienolone (PerkinElmer, Cat: NET590250UC, San Jose, CA), the plate was sealed and shaken at 300 rpm at 4° C. for 24 hours. Post incubation, 100 μL of radioligand adsorption buffer containing 10 mM Tris-HCl, pH 7.4; 1.5 mM EDTA; 1 mM DTT; 0.25% charcoal; 0.0025% dextran was added to individual wells. Plate was shaken for 15 min at 4° C. followed by centrifugation at 3000 rpm for 30 min at 4° C. 150 μL of supernatant is transferred into scint-tube (PerkinElmer, Cat: 6000192) and mixed with 2 mL of Ultima Gold Cocktail (PerkinElmer, Cat: 6013329). Radioactivity is counted using a TriCarb 2910 TR scintillation counter (PerkinElmer). Inhibition of the radioactivity by test articles was calculated using the equation below: % Inhibition=(1−(Assay well−Average_LC)/(Average_HC−Average_LC))×100%. • IC50 values (Table 6) were calculated and graphed using the model “log(inhibitor) vs. response—Variable slope” included in GraphPad Prism 5 (San Diego, CA). The Ki values were further calculated using the equation below where [L] is the radioligand concentration (1 nM) used in this study. Kd value was 0.332 nM. Ki=IC50/(1+[L]/Kd) • c. AR transactivation: Human AR cloned into a CMV vector backbone is used for the transactivation study. HEK-293 cells are plated at 80,000 cells per well of a 24 well plate in DME+5% csFBS. Twenty four hours later, the cells are transfected using Lipofectamine (Invitrogen, Carlsbad, CA) with 0.25 μg GRE-LUC, 0.01 μg CMV-LUC (renilla luciferase) and 25 ng of the AR in OPTIMEM medium. The cells are treated 24 hrs after transfection with various ligands (10^−12 to 10^−5 M final concentrations) and luciferase assay performed 48 hours after transfection. […]

LNCap cells = experiment: Cell viability assay (CellTiterGlo, 6 days) LNCap; type: cell-based; conditions: Homo sapiens, 144 h
Experimental: Cell viability assay: LNCap, 22Rv1, and T47D cells were seeded at a density of 1500-2000 cells/well in 96 well plates, and a ‘T0’ (timepoint 0) was included along with the assay plate. The plates were then incubated at 37° C., 5% CO2 in a cell culture incubator overnight. On the next day, the ‘T0’ plate was assayed using CellTiterGlo (Promega, Inc) according to the manufacturer's instructions. The appropriate compounds were diluted in DMSO and added to the assay plate (final DMSO concentration of 0.2%) on the next day. The assay plates were incubated for 6 days at 37° C., 5% CO2. After the incubation period, the plates were assayed using CellTiterGlo (Promega, Inc) according to the manufacturer's instructions and luminescence was read on the EnVision plate reader. Inhibition the tested compounds was determined by the following formula: Inhibition rate (%)=(1−(RLU compound−RLU day0)/(RLU control−RLU day0))*100%. GraphPadPrism was used to analyze the data and determine absolute IC50 values.

Human recombinant PARP1, sequence (P09874 whole entry): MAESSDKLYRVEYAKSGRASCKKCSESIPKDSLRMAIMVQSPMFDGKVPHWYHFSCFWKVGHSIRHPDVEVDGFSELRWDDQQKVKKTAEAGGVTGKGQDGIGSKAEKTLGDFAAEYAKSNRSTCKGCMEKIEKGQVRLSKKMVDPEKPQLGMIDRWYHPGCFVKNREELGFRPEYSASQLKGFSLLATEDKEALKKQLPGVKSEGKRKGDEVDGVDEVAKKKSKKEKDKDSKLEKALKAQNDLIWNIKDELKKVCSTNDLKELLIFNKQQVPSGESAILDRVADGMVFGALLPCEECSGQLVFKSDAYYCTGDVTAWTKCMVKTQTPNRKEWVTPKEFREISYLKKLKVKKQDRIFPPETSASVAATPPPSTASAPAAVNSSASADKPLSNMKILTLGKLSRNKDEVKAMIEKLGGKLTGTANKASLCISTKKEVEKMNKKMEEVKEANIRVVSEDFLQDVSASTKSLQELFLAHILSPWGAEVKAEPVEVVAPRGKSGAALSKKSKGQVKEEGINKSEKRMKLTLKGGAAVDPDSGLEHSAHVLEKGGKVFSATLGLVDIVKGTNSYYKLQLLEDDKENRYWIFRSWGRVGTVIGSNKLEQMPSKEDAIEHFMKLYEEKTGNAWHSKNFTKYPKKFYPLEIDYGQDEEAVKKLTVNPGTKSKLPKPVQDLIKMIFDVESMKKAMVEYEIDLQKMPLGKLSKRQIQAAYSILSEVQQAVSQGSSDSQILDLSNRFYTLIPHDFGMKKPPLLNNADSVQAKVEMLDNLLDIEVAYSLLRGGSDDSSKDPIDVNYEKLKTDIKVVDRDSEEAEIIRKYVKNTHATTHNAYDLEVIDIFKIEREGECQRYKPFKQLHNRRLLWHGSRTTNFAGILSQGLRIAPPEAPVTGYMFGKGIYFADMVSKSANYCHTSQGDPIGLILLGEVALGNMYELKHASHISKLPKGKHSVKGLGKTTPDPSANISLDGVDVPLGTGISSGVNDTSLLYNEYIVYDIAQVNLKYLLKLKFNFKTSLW

Row | IC50 (LNCap cells; Table 8) [µM] | Structure (SMILES) | IC50 (Human recombinant PARP1; Table 9, read-out: PARP1) [µM] | IC50 (LNCap cells; Table 7) [µM] | IC50 (Human recombinant PARP1; Table 5, in vitro results, read-out: PARP1 IC50) [µM]
1 |  | C[C@@]12CCC(=O)C[C@H]1CC[C@H]1[C@H]2CC[C@]2(C)[C@@H]1CC[C@H]2OCCCCCCNC(=O)c1cc(Cc2n[nH]c(=O)c3ccccc23)ccc1F (stereo in doubt) [Compound 1426, N-(6-((5R,8S,9R,10R,13R,14R,17R)-10,13-dimethyl-3-oxohexadecahydro-1H-cyclopenta[a]phenanthren-17-yloxy)hexyl)-2-fluoro-5-((4-oxo-3,4-dihydrophthalazin-1-yl)methyl)benzamide] | > 0.1 | 1 to 10 | 
2 | 0.1 to 1 | CC#C[C@]1(O)CC[C@H]2[C@@H]3CCC4=CC(=O)CCC4=C3[C@@H](c3ccc(N(C)CCCCCC(=O)N4CCN(C(=O)c5cc(Cc6n[nH]c(=O)c7ccccc67)ccc5F)CC4)cc3)C[C@@]21C [Compound 135, 4-(4-fluoro-3-(4-(6-((4-((8S,11R,13S,14S,17S)-17-hydroxy-13-methyl-3-oxo-17-(prop-1-ynyl)-2,3,6,7,8,11,12,13,14,15,16,17-dodecahydro-1H-cyclopenta[a]phenanthren-11-yl)phenyl)(methyl)amino)hexanoyl)piperazine-1-carbonyl)benzyl)phthalazin-1(2H)-one] | 0.001 to 0.01 |  | 
3 |  | C[C@]12C[C@H](CCCCCC(=O)N3CCN(C(=O)c4cc(Cc5n[nH]c(=O)c6ccccc56)ccc4F)CC3)C3=C4CCC(=O)C=C4CC[C@H]3[C@@H]1CCC2O (stereo partly drawn) [Compound 138, 4-(4-fluoro-3-(4-(6-((8S,11S,13S,14S)-17-hydroxy-13-methyl-3-oxo-2,3,6,7,8,11,12,13,14,15,16,17-dodecahydro-1H-cyclopenta[a]phenanthren-11-yl)hexanoyl)piperazine-1-carbonyl)benzyl)phthalazin-1(2H)-one] | < 0.001 | 0.1 to 1 | 
4 |  | Cn1ncnc1C1c2n[nH]c(=O)c3cc(F)cc(c23)N[C@@H]1c1ccc(NC(=O)CCCCCO[C@@H]2CC[C@H]3[C@@H]4CC[C@H]5CCCC[C@]5(C)[C@H]4CC[C@]23C)cc1 (stereo partly drawn) [Compound 1128, 6-((5R,8R,9S,10S,13S,14S,17R)-10,13-dimethylhexadecahydro-1H-cyclopenta[a]phenanthren-17-yloxy)-N-(4-((8S)-5-fluoro-9-(1-methyl-1H-1,2,4-triazol-5-yl)-3-oxo-3,7,8,9-tetrahydro-2H-pyrido[4,3,2-de]phthalazin-8-yl)phenyl)hexanamide] |  | 0.1 to 1 | 0.252
5 | 0.1 to 1 | CC(=O)O[C@]1(C(C)=O)CC[C@H]2[C@@H]3CCC4=CC(=O)CCC4=C3[C@@H](c3ccc(N(C)CCCCCC(=O)N4CCN(C(=O)c5cc(Cc6n[nH]c(=O)c7ccccc67)ccc5F)CC4)cc3)C[C@@]21C [Compound 1378, (8S,11R,13S,14S,17R)-17-acetyl-11-(4-((6-(4-(2-fluoro-5-((4-oxo-3,4-dihydrophthalazin-1-yl)methyl)benzoyl)piperazin-1-yl)-6-oxohexyl)(methyl)amino)phenyl)-13-methyl-3-oxo-2,3,6,7,8,11,12,13,14,15,16,17-dodecahydro-1H-cyclopenta[a]phenanthren-17-yl acetate] | 0.001 to 0.01 |  | 
6 | 1 to 10 | CC(=O)O[C@]1(C(C)=O)CC[C@H]2[C@@H]3CCC4=CC(=O)CCC4=C3[C@@H](c3ccc(N(C)CCCCCC(=O)NCCOCCOCC(=O)N4CCN(C(=O)c5cc(Cc6n[nH]c(=O)c7ccccc67)ccc5F)CC4)cc3)C[C@@]21C [Compound 1384, (8S,11R,13S,14S,17R)-17-acetyl-11-(4-((6-(2-(2-(2-(4-(2-fluoro-5-((4-oxo-3,4-dihydrophthalazin-1-yl)methyl)benzoyl)piperazin-1-yl)-2-oxoethoxy)ethoxy)ethylamino)-6-oxohexyl)(methyl)amino)phenyl)-13-methyl-3-oxo-2,3,6,7,8,11,12,13,14,15,16,17-dodecahydro-1H-cyclopenta[a]phenanthren-17-yl acetate] | 0.001 to 0.01 |  | 
7 |  | C[C@]12Cc3cn[nH]c3C[C@@H]1CC[C@@H]1[C@@H]2CC[C@]2(C)[C@@H](OCCCCCC(=O)N3CCN(C(=O)c4cc(Cc5n[nH]c(=O)c6ccccc56)ccc4F)CC3)CC[C@@H]12 [Compound 1394, 4-(3-(4-(6-(((1S,3aS,3bR,5aS,10aS,10bS,12aS)-10a,12a-dimethyl-1,2,3,3a,3b,4,5,5a,6,7,10,10a,10b,11,12,12a-hexadecahydrocyclopenta[5,6]naphtho[1,2-f]indazol-1-yl)oxy)hexanoyl)piperazine-1-carbonyl)-4-fluorobenzyl)phthalazin-1(2H)-one] | 0.01 to 0.1 | 0.1 to 1 | 
8 | > 10 | CC#C[C@]1(O)CC[C@H]2[C@@H]3CCC4=CC(=O)CCC4=C3[C@@H](c3ccc(N(C)CCCCCC(=O)NCCOCCOCC(=O)N4CCN(C(=O)c5cc(Cc6n[nH]c(=O)c7ccccc67)ccc5F)CC4)cc3)C[C@@]21C [Compound 1429, N-(2-(2-(2-(4-(2-fluoro-5-((4-oxo-3,4-dihydrophthalazin-1-yl)methyl)benzoyl)piperazin-1-yl)-2-oxoethoxy)ethoxy)ethyl)-6-((4-((8S,11R,13S,14S,17S)-17-hydroxy-13-methyl-3-oxo-17-(prop-1-ynyl)-2,3,6,7,8,11,12,13,14,15,16,17-dodecahydro-1H-cyclopenta[a]phenanthren-11-yl)phenyl)(methyl)amino)hexanamide] | < 0.001 |  | 

Row | Structure (SMILES) | IC50 (LNCap cells; Table 8) [µM] | IC50 (Human recombinant PARP1; Table 9, read-out: PARP1) [µM] | IC50 (LNCap cells; Table 7) [µM] | IC50 (Human recombinant PARP1; Table 5, in vitro results, read-out: PARP1 IC50) [µM]
9 | C[C@]12CC[C@H]3[C@@H](CCC4=CC(=O)CC[C@@]43C)[C@@H]1CC[C@@H]2C(=O)COCCCCCC(=O)N1CCN(C(=O)c2cc(Cc3n[nH]c(=O)c4ccccc34)ccc2F)CC1 [Compound 1386, 4-(3-(4-(6-(2-((8S,9S,10R,13S,14S,17S)-10,13-dimethyl-3-oxo-2,3,6,7,8,9,10,11,12,13,14,15,16,17-tetradecahydro-1H-cyclopenta[a]phenanthren-17-yl)-2-oxoethoxy)hexanoyl)piperazine-1-carbonyl)-4-fluorobenzyl)phthalazin-1(2H)-one] | 0.1 to 1 | 0.001 to 0.01 |  | 
